For this assay, the target named is Tyrosine-protein kinase JAK2 (Homo sapiens, UniProt O60674). Nature of the assay: Enzyme Screening Assay. As for the experimental part:
Alphascreen phosphotyrosine acceptor beads followed by streptavidin donor beads at a concentration of 1/100 in stop buffer were added to each well under subdued light and incubated for 2-3 hours. The Alphascreen plates were read on a Packard Fusion Alpha instrument

Chain of Tyrosine-protein kinase JAK2 (O60674 whole entry, the tested form may be a part): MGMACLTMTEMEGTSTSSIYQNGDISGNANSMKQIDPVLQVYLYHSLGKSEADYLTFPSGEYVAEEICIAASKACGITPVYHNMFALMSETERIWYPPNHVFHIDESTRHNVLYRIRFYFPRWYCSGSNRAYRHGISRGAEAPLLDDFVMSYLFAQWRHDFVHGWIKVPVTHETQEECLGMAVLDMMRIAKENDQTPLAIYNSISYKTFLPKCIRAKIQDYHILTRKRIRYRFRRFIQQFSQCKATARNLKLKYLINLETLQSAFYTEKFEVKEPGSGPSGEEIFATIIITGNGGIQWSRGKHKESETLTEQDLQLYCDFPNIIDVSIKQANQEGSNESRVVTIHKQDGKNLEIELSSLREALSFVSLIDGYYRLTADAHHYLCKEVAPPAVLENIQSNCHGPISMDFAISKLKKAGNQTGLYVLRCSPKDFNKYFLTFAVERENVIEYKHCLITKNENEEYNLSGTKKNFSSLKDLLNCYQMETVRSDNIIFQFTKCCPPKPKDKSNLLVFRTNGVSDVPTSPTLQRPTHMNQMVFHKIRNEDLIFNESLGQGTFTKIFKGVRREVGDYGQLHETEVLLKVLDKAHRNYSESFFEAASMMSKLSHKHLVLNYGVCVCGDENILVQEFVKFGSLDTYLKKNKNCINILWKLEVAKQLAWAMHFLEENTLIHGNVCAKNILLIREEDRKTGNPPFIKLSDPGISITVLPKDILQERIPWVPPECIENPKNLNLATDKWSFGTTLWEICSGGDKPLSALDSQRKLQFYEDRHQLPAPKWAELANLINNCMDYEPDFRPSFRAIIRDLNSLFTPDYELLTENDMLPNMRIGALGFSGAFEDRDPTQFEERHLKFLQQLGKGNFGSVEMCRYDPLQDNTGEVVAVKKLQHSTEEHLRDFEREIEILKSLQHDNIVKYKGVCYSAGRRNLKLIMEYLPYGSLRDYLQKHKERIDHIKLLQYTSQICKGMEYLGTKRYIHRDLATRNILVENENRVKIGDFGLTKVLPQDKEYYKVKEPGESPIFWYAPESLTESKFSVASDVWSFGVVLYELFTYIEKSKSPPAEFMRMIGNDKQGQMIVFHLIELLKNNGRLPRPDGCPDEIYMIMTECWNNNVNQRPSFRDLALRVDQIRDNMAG

On to `CCN1CCC(OC2CCC(Nc3nccc(-c4ccc(C(=O)NCC#N)cc4)n3)CC2)CC1` (stereo unspecified) [US12570614, Compound 80], for which the IC50 (as a rule, the concentration at which inhibition is half-maximal) is under 1 µM.

(Values after BindingDB's records for patent US12570614 (Glaxosmith Kline, 2026).)
